Test: Inhibition of Phosphatidylinositol 3-kinase

| Compound | IC50 |
| --- | --- |
| COC[C@H]1OC(=O)C(=C(C)C)C2=C(O)C(=O)C3=C([C@H](OC(C)=O)C[C@]4(C)C(=O)CC[C@@H]34)[C@]21C | > 500 nM |
| CC/N=C/C1=C(O)O[C@H](COC)[C@@]2(C)C1=C(O)C(=O)C1=C2[C@H](OC(C)=O)C[C@]2(C)C(=O)CC[C@@H]12 | > 500 nM |
| CCC/N=C\C1=C(O)O[C@H](COC)[C@@]2(C)C1=C(O)C(=O)C1=C2[C@H](OC(C)=O)C[C@]2(C)C(=O)CC[C@@H]12 | > 500 nM |
| COC[C@H]1OC(=O)C23CC2COC2=C3[C@@]1(C)C1=C(C2=O)[C@@H]2CCC(=O)[C@@]2(C)C[C@H]1OC(C)=O (some centres undefined) | > 500 nM |
| COC[C@H]1OC(=O)c2coc3c2[C@@]1(C)C1=C(C3=O)[C@@H]2CCC(=O)[C@@]2(C)C[C@H]1OC(C)=O [WORTMANNIN] | 4.2 nM |

Continued, values first:

| IC50 | Compound |
| --- | --- |
| > 500 nM | C/N=C/C1=C(O)O[C@H](COC)[C@@]2(C)C1=C(O)C(=O)C1=C2[C@H](OC(C)=O)C[C@]2(C)C(=O)CC[C@@H]12 |
| > 500 nM | COC[C@H]1OC(O)=C(C=N)C2=C(O)C(=O)C3=C([C@H](OC(C)=O)C[C@]4(C)C(=O)CC[C@@H]34)[C@]21C |
| 271 nM | COC[C@H]1OC(=O)C2=CCOC3=C2[C@@]1(C)C1=C(C3=O)[C@@H]2CCC(=O)[C@@]2(C)C[C@H]1OC(C)=O |
| 80 nM | CCN(/C=C1/C(=O)O[C@H](COC)[C@@]2(C)C1=C(O)C(=O)C1=C2[C@H](OC(C)=O)C[C@]2(C)C(=O)CC[C@@H]12)CC |

From ChEMBL document CHEMBL1150451, “Synthetic studies on the furan ring of wortmannin” (Bioorg Med Chem Lett, 1995)
